We go through nine molecules from US9636418B2 (priority 2013, dated 2017).

Molecules are shown by their SMILES. pIC50: −log10 of the molar value. Like-named read-outs stand apart in the source and are kept apart here.

Holding throughout (test): cell-based
The target of one test is hNav1.7 (Homo sapiens, UniProt Q15858). The test is classed as cell-based. The settings on record: PatchXpress, read-out: PX hNav1.7 Tonic IC50.
For a further test, the target named is hNav1.4 (Homo sapiens, UniProt P35499). Conditions: for pIC50: PatchXpress, read-out: PX hNav1.4 Tonic IC50.
Chain of hNav1.4 (P35499 whole entry): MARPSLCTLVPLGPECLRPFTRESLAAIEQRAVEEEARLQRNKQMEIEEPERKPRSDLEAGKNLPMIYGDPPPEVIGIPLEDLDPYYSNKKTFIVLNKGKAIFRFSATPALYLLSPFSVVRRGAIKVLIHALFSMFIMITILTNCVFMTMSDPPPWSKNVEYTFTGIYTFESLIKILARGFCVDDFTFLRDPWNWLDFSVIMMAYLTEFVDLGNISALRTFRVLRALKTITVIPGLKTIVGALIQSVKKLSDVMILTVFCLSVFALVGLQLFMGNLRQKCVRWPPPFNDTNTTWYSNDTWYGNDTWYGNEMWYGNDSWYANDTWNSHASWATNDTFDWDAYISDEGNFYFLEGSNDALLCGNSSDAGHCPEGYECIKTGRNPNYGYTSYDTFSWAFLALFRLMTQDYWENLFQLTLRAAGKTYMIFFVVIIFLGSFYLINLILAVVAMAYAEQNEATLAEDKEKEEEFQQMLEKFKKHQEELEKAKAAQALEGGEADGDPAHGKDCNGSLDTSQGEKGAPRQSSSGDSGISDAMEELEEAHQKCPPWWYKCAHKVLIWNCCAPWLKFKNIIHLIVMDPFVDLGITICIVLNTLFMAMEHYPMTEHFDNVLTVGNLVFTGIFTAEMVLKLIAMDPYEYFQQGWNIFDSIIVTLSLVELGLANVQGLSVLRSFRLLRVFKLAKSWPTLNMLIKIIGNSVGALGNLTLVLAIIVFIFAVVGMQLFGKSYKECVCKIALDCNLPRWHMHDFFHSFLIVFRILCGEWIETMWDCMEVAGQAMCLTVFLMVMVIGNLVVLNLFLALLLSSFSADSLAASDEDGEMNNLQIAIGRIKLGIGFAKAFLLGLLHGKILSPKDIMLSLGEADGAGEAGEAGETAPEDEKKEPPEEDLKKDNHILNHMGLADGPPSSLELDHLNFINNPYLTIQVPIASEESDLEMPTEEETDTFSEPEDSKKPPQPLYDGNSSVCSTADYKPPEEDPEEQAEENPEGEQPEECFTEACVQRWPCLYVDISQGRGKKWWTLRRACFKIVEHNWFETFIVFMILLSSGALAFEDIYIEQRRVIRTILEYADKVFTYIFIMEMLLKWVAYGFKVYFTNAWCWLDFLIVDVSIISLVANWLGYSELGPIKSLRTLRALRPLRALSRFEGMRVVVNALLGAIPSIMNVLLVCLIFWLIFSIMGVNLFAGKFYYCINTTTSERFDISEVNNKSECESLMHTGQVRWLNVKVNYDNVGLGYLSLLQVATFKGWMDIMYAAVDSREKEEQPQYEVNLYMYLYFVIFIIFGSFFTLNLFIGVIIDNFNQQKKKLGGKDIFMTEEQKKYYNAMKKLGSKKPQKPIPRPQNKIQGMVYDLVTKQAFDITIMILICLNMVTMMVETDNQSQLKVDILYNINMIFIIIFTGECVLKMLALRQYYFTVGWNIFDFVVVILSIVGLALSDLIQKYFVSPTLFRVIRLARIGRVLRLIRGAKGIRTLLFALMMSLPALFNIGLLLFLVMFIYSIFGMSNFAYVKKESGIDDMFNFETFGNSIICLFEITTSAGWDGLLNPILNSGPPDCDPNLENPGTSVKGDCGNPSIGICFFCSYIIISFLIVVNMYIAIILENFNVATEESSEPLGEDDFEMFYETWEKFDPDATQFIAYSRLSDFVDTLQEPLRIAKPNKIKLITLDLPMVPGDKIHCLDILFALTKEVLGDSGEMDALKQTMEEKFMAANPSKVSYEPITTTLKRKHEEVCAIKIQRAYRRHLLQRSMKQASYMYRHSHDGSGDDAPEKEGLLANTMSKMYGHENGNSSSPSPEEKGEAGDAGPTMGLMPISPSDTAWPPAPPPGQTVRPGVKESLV
The target of another test is hNav1.5 (Homo sapiens, UniProt Q14524). Conditions: PatchXpress, read-out: PX hNav1.5 Tonic IC50.
Chain of hNav1.5 (Q14524 whole entry): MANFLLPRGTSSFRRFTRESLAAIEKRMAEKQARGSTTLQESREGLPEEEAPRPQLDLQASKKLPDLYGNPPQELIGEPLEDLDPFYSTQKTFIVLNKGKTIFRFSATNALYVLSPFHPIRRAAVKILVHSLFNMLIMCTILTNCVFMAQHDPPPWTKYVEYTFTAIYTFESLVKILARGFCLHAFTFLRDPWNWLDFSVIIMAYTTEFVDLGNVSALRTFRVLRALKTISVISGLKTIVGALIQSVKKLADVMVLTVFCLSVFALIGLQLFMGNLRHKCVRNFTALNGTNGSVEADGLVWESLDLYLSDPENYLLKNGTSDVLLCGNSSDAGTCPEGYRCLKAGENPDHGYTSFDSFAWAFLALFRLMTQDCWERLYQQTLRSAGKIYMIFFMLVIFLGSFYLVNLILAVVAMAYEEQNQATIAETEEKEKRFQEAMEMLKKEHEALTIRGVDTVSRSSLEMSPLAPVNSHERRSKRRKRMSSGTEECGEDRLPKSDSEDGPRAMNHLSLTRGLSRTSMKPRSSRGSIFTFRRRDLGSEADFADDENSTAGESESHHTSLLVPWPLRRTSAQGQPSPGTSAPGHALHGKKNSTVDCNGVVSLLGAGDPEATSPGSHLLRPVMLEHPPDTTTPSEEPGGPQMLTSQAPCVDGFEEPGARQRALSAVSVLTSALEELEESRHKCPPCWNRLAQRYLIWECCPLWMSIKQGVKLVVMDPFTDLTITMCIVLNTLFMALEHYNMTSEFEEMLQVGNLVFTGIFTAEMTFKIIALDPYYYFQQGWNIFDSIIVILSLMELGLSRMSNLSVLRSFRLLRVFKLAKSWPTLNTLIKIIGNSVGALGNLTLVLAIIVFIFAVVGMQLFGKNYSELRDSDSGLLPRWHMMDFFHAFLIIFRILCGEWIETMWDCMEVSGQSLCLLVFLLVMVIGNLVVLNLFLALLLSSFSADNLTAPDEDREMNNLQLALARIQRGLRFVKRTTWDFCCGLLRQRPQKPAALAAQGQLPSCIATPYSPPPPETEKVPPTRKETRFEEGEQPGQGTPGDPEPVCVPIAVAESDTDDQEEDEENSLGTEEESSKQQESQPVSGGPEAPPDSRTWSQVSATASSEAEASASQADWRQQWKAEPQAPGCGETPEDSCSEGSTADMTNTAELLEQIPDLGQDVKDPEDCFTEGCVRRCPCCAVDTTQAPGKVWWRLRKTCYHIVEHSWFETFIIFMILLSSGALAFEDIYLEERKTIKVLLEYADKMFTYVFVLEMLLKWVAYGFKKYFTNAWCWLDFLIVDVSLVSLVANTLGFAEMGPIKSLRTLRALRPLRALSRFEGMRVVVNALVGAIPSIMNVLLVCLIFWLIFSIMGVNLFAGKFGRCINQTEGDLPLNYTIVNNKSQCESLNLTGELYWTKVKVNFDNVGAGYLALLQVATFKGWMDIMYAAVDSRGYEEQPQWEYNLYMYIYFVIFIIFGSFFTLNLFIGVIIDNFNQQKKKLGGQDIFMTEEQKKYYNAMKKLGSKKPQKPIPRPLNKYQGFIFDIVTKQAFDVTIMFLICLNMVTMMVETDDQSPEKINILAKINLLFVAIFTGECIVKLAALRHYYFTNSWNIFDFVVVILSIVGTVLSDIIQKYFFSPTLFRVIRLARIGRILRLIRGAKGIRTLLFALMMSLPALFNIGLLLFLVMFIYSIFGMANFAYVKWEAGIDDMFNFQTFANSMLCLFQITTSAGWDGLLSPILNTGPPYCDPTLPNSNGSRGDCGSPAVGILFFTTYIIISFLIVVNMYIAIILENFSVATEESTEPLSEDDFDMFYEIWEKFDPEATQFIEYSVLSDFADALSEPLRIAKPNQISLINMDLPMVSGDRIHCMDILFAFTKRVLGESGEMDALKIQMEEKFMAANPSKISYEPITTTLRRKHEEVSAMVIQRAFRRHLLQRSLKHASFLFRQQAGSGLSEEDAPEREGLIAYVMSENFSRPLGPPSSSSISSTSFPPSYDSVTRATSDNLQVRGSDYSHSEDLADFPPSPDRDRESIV
The mark [1] stands for this setting: * = at high concentrations compound would wash off slowly or not at all.

What is called pIC50 is −log10 of the IC50, conventionally taken in molar units. Take `C#CC[C@@H]1NC(=O)[C@H](CC(=O)O)NC(=O)[C@@H]2CSSC[C@@H]3NC(=O)[C@H](CCC(=O)O)NC(=O)[C@H](CC(C)C)NC(=O)CNC(=O)[C@H](CCC(=O)O)NC(=O)[C@H](CSSC[C@H](NC(=O)[C@@H](N)Cc4ccc(O)cc4)C(=O)N[C@@H](CCC(N)=O)C(=O)N[C@@H](CCCCN)C(=O)N[C@@H](Cc4c[nH]c5ccccc45)C(=O)N[C@@H](CCCC)C(=O)N[C@@H](Cc4c[nH]c5ccccc45)C(=O)N[C@@H]([C@@H](C)O)C(=O)N2)NC(=O)[C@H](CSSC[C@@H](C(=O)N[C@@H](CCCNC(=N)N)C(=O)N[C@@H](CCCCN)C(=O)N[C@H](C(=O)N[C@H](C(N)=O)[C@@H](C)CC)[C@@H](C)CC)NC(=O)[C@H](Cc2c[nH]c4ccccc24)NC(=O)[C@H](CC(C)C)NC(=O)[C@H](CCCCN)NC3=O)NC(=O)[C@H](C)NC(=O)[C@H](CCCNC(=N)N)NC(=O)[C@H](CCCCN)NC1=O` [compound 344]: the pIC50 on hNav1.7 (tonic block) is 7.74; at hNav1.4 (tonic block), 5.37; at hNav1.5 (tonic block) it was 5.45. On hNav1.4 (ratio of PX tonic IC50 values), the Nav1.4/Nav1.7 is 230.

Regarding `C#CC[C@@H]1NC(=O)[C@H](CCCNC(=N)N)NC(=O)[C@H](CCCCN)NC(=O)[C@H](CO)NC(=O)[C@H](CC(=O)O)NC(=O)[C@@H]2CSSC[C@@H]3NC(=O)[C@H](CCC(=O)O)NC(=O)[C@H](CC(C)C)NC(=O)CNC(=O)[C@H](CCC(=O)O)NC(=O)[C@H](CSSC[C@H](NC(=O)[C@@H](N)Cc4ccc(O)cc4)C(=O)N[C@@H](CCC(N)=O)C(=O)N[C@@H](CCCCN)C(=O)N[C@@H](Cc4c[nH]c5ccccc45)C(=O)N[C@@H](CCCC)C(=O)N[C@@H](Cc4c[nH]c5ccccc45)C(=O)N[C@@H]([C@@H](C)O)C(=O)N2)NC(=O)[C@H](CSSC[C@@H](C(=O)N[C@@H](CCCNC(=N)N)C(=O)N[C@@H](CCCCN)C(=O)N[C@H](C(=O)N[C@H](C(N)=O)[C@@H](C)CC)[C@@H](C)CC)NC(=O)[C@H](Cc2c[nH]c4ccccc24)NC(=O)[C@H](CC(C)C)NC(=O)[C@H](CCCCN)NC3=O)NC1=O` [compound 345], the values for the negative logarithm of the IC50 (pIC50) on hNav1.7 (tonic block), at hNav1.4 (tonic block) and at hNav1.5 (tonic block) were 8.14, 5.78 and 5.34, respectively.

In the case of `C#CC[C@@H]1NC(=O)[C@@H]2CSSC[C@H](NC(=O)[C@@H](N)Cc3ccc(O)cc3)C(=O)N[C@@H](CCC(N)=O)C(=O)N[C@@H](CCCCN)C(=O)N[C@@H](Cc3c[nH]c4ccccc34)C(=O)N[C@@H](CCCC)C(=O)N[C@@H](Cc3c[nH]c4ccccc34)C(=O)N[C@@H]([C@@H](C)O)C(=O)N[C@H]3CSSC[C@H](NC(=O)[C@H](CCC(=O)O)NC(=O)[C@H](CC(C)C)NC(=O)CNC1=O)C(=O)N[C@@H](CCCCN)C(=O)N[C@@H](CC(C)C)C(=O)N[C@@H](Cc1c[nH]c4ccccc14)C(=O)N[C@H](C(=O)N[C@@H](CCCNC(=N)N)C(=O)N[C@@H](CCCCN)C(=O)N[C@H](C(=O)N[C@H](C(N)=O)[C@@H](C)CC)[C@@H](C)CC)CSSC[C@H](NC(=O)[C@H](C)NC(=O)[C@H](CCCNC(=N)N)NC(=O)[C@H](CCCCN)NC(=O)[C@H](CO)NC(=O)[C@H](CC(=O)O)NC3=O)C(=O)N2` [compound 346], the negative-log IC50 (pIC50) was 8.00 on hNav1.7 (tonic block), 6.54 on hNav1.4 (tonic block) and 5.99 on hNav1.5 (tonic block). The Nav1.4/Nav1.7 at hNav1.4 (ratio of PX tonic IC50 values) is reported as 29.

For `CCCC[C@@H]1NC(=O)[C@H](Cc2c[nH]c3ccccc23)NC(=O)[C@H](CCCCN)NC(=O)[C@H](CCC(N)=O)NC(=O)[C@@H](NC(=O)[C@H](Cc2ccc(O)cc2)NC(=O)[C@@H](N)CCCC)CSSC[C@@H]2NC(=O)[C@@H]3CSSC[C@@H](C(=O)N[C@@H](CCCNC(=N)N)C(=O)N[C@@H](CCCCN)C(=O)N[C@H](C(=O)N[C@H](C(N)=O)[C@@H](C)CC)[C@@H](C)CC)NC(=O)[C@H](Cc4c[nH]c5ccccc45)NC(=O)[C@H](CC(C)C)NC(=O)[C@H](CCCCN)NC(=O)[C@H](CSSC[C@H](NC(=O)[C@H]([C@@H](C)O)NC(=O)[C@H](Cc4c[nH]c5ccccc45)NC1=O)C(=O)N[C@@H](CC(=O)O)C(=O)N[C@@H](CO)C(=O)N[C@@H](CCCCN)C(=O)N[C@@H](CCCNC(=N)N)C(=O)N[C@@H](C)C(=O)N3)NC(=O)[C@H](CCCNC(=N)N)NC(=O)[C@H](CC(C)C)NC(=O)CNC(=O)[C@H](CCC(=O)O)NC2=O` [compound 370], the values for the pIC50 at hNav1.7 (setting [1]), on hNav1.4 (setting [1]) and on hNav1.5 (setting [1]) were 9.65, 8.34 and 6.08, respectively. The Nav1.4/Nav1.7 on hNav1.4 (ratio of PX IC50 values) came to 21.

As for `CCCC[C@@H]1NC(=O)[C@H](Cc2c[nH]c3ccccc23)NC(=O)[C@H](CCCCN)NC(=O)[C@H](CCC(N)=O)NC(=O)[C@@H](NC(=O)[C@H](Cc2ccc(O)cc2)NC(=O)[C@@H](C)N)CSSC[C@@H]2NC(=O)[C@@H]3CSSC[C@@H](C(=O)N[C@@H](CCCNC(=N)N)C(=O)N[C@@H](CCCCN)C(=O)N[C@H](C(=O)N[C@H](C(N)=O)[C@@H](C)CC)[C@@H](C)CC)NC(=O)[C@H](Cc4c[nH]c5ccccc45)NC(=O)[C@H](CC(C)C)NC(=O)[C@H](CCCCN)NC(=O)[C@H](CSSC[C@H](NC(=O)[C@H]([C@@H](C)O)NC(=O)[C@H](Cc4c[nH]c5ccccc45)NC1=O)C(=O)N[C@@H](CC(=O)O)C(=O)N[C@@H](CO)C(=O)N[C@@H](CCCCN)C(=O)N[C@@H](CCCNC(=N)N)C(=O)N[C@@H](C)C(=O)N3)NC(=O)[C@H](CCCNC(=N)N)NC(=O)[C@H](CC(C)C)NC(=O)CNC(=O)[C@H](CCC(=O)O)NC2=O` [compound 372], the pIC50 on hNav1.7 (setting [1]) was 9.02; at hNav1.4 (setting [1]) it was 8.29; at hNav1.5 (setting [1]) it was 6.14. Further, the Nav1.4/Nav1.7 on hNav1.4 (ratio of PX IC50 values) was found to be 5.

For the molecule `CCCC[C@@H]1NC(=O)[C@H](Cc2c[nH]c3ccccc23)NC(=O)[C@H](CCCCN)NC(=O)[C@H](CCC(N)=O)NC(=O)[C@@H](NC(=O)[C@H](Cc2ccc(O)cc2)NC(=O)[C@H](N)Cc2ccccc2)CSSC[C@@H]2NC(=O)[C@@H]3CSSC[C@@H](C(=O)N[C@@H](CCCNC(=N)N)C(=O)N[C@@H](CCCCN)C(=O)N[C@H](C(=O)N[C@H](C(N)=O)[C@@H](C)CC)[C@@H](C)CC)NC(=O)[C@H](Cc4c[nH]c5ccccc45)NC(=O)[C@H](CC(C)C)NC(=O)[C@H](CCCCN)NC(=O)[C@H](CSSC[C@H](NC(=O)[C@H]([C@@H](C)O)NC(=O)[C@H](Cc4c[nH]c5ccccc45)NC1=O)C(=O)N[C@@H](CC(=O)O)C(=O)N[C@@H](CO)C(=O)N[C@@H](CCCCN)C(=O)N[C@@H](CCCNC(=N)N)C(=O)N[C@@H](C)C(=O)N3)NC(=O)[C@H](CCCNC(=N)N)NC(=O)[C@H](CC(C)C)NC(=O)CNC(=O)[C@H](CCC(=O)O)NC2=O` [compound 374], the figures for the pIC50 on hNav1.7 (setting [1]), on hNav1.4 (setting [1]) and on hNav1.5 (setting [1]) were 9.45, 8.17 and 6.21, respectively. The Nav1.4/Nav1.7 at hNav1.4 (ratio of PX IC50 values) is on record as 19.

For the molecule `CCCC[C@@H]1NC(=O)[C@H](Cc2c[nH]c3ccccc23)NC(=O)[C@H](CCCCN)NC(=O)[C@H](CCC(N)=O)NC(=O)[C@@H](NC(=O)[C@H](Cc2ccc(O)cc2)NC(=O)CCN)CSSC[C@@H]2NC(=O)[C@@H]3CSSC[C@@H](C(=O)N[C@@H](CCCNC(=N)N)C(=O)N[C@@H](CCCCN)C(=O)N[C@H](C(=O)N[C@H](C(N)=O)[C@@H](C)CC)[C@@H](C)CC)NC(=O)[C@H](Cc4c[nH]c5ccccc45)NC(=O)[C@H](CC(C)C)NC(=O)[C@H](CCCCN)NC(=O)[C@H](CSSC[C@H](NC(=O)[C@H]([C@@H](C)O)NC(=O)[C@H](Cc4c[nH]c5ccccc45)NC1=O)C(=O)N[C@@H](CC(=O)O)C(=O)N[C@@H](CO)C(=O)N[C@@H](CCCCN)C(=O)N[C@@H](CCCNC(=N)N)C(=O)N[C@@H](C)C(=O)N3)NC(=O)[C@H](CCCNC(=N)N)NC(=O)[C@H](CC(C)C)NC(=O)CNC(=O)[C@H](CCC(=O)O)NC2=O` [compound 376], the pIC50 was 9.02 at hNav1.7 (setting [1]), 8.49 on hNav1.4 (setting [1]) and 6.15 on hNav1.5 (setting [1]). At hNav1.4 (ratio of PX IC50 values), the Nav1.4/Nav1.7 was 3.

For the molecule `CCCC[C@@H]1NC(=O)[C@H](Cc2c[nH]c3ccccc23)NC(=O)[C@H](CCCCN)NC(=O)[C@H](CCC(N)=O)NC(=O)[C@@H](NC(=O)[C@H](Cc2ccc(O)cc2)NC(=O)[C@@H](N)CCC(C)C)CSSC[C@@H]2NC(=O)[C@@H]3CSSC[C@@H](C(=O)N[C@@H](CCCNC(=N)N)C(=O)N[C@@H](CCCCN)C(=O)N[C@H](C(=O)N[C@H](C(N)=O)[C@@H](C)CC)[C@@H](C)CC)NC(=O)[C@H](Cc4c[nH]c5ccccc45)NC(=O)[C@H](CC(C)C)NC(=O)[C@H](CCCCN)NC(=O)[C@H](CSSC[C@H](NC(=O)[C@H]([C@@H](C)O)NC(=O)[C@H](Cc4c[nH]c5ccccc45)NC1=O)C(=O)N[C@@H](CC(=O)O)C(=O)N[C@@H](CO)C(=O)N[C@@H](CCCCN)C(=O)N[C@@H](CCCNC(=N)N)C(=O)N[C@@H](C)C(=O)N3)NC(=O)[C@H](CCCNC(=N)N)NC(=O)[C@H](CC(C)C)NC(=O)CNC(=O)[C@H](CCC(=O)O)NC2=O` [compound 377], the values for the negative logarithm of the IC50 (pIC50) at hNav1.7 (setting [1]), on hNav1.4 (setting [1]) and at hNav1.5 (setting [1]) were 9.17, 8.07 and 6.38, respectively. On hNav1.4 (ratio of PX IC50 values), the Nav1.4/Nav1.7 is given as 13.

As for `CCCC[C@@H]1NC(=O)[C@H](Cc2c[nH]c3ccccc23)NC(=O)[C@H](CCCCN)NC(=O)[C@H](CCC(N)=O)NC(=O)[C@@H](NC(=O)[C@H](Cc2ccc(O)cc2)NC(=O)[C@@H](N)CCc2ccccc2)CSSC[C@@H]2NC(=O)[C@@H]3CSSC[C@@H](C(=O)N[C@@H](CCCNC(=N)N)C(=O)N[C@@H](CCCCN)C(=O)N[C@H](C(=O)N[C@H](C(N)=O)[C@@H](C)CC)[C@@H](C)CC)NC(=O)[C@H](Cc4c[nH]c5ccccc45)NC(=O)[C@H](CC(C)C)NC(=O)[C@H](CCCCN)NC(=O)[C@H](CSSC[C@H](NC(=O)[C@H]([C@@H](C)O)NC(=O)[C@H](Cc4c[nH]c5ccccc45)NC1=O)C(=O)N[C@@H](CC(=O)O)C(=O)N[C@@H](CO)C(=O)N[C@@H](CCCCN)C(=O)N[C@@H](CCCNC(=N)N)C(=O)N[C@@H](C)C(=O)N3)NC(=O)[C@H](CCCNC(=N)N)NC(=O)[C@H](CC(C)C)NC(=O)CNC(=O)[C@H](CCC(=O)O)NC2=O` [compound 379], the negative logarithm of the IC50 (pIC50) at hNav1.7 (setting [1]) is 9.32; at hNav1.4 (setting [1]), 8.32; on hNav1.5 (setting [1]), 6.36. Moreover, at hNav1.4 (ratio of PX IC50 values), the Nav1.4/Nav1.7 was determined as 10.
